Data taken from ChEMBL document CHEMBL5584212, “Characterization of the G-quadruplexes in the transthyretin gene and its role in silencing transthyretin mRNA transcription” (Bioorg Med Chem Lett, 2024).
Active and inactive are the calls of the source. No cut-off for these calls is given here.

Key:
Quadruplex DNA [1] = assay: Stabilization of TTRG3 G-quadruplex (unknown origin) assessed as melting temperature in presence of K+ by circular dichroism analysis; assay type: nucleic-acid assay
Quadruplex DNA [2] = assay: Stabilization of TTRG3 G-quadruplex (unknown origin) assessed as change in melting temperature in presence of K+ by circular dichroism analysis; assay type: nucleic-acid assay
Quadruplex DNA [3] = assay: Binding affinity to parallel TTRG1 G-quadruplex (unknown origin) assessed as formation of anti-parallel G-quadruplex formation in presence of 1 mM K+ by circular dichroism spectra analysis; assay type: nucleic-acid assay
Quadruplex DNA [4] = assay: Binding affinity to parallel TTRG1 G-quadruplex (unknown origin) assessed as formation of anti-parallel G-quadruplex formation in presence of 100 mM K+ by circular dichroism spectra analysis; assay type: nucleic-acid assay
Quadruplex DNA [5] = assay: Binding affinity to parallel TTRG3 G-quadruplex (unknown origin) assessed as formation of anti-parallel G-quadruplex formation in presence of 100 mM K+ by circular dichroism spectra analysis; assay type: nucleic-acid assay
Quadruplex DNA [6] = assay: Stabilization of parallel TTRG3 G-quadruplex (unknown origin) by CD spectra analysis; assay type: nucleic-acid assay
Quadruplex DNA [7] = assay: Binding affinity to TTRG3 G-quadruplex (unknown origin) assessed as increase in fluorescence by measuring red shift at 1 uM by UV-Visible spectrophotometric analysis; assay type: nucleic-acid assay
Quadruplex DNA [8] = assay: Binding affinity to TTRG3 G-quadruplex (unknown origin) assessed as hyperchromic shift by measuring increase in absorbance intensity at 1 uM by UV-Visible spectrophotometric analysis; assay type: nucleic-acid assay
Quadruplex DNA [9] = assay: Binding affinity to TTRG3 G-quadruplex (unknown origin) assessed as increase in fluorescence intensity at 2 uM by fluorescence titration spectra analysis; assay type: nucleic-acid assay
HepG2 [10] = assay: Cytotoxicity against human HepG2 cells at 50 uM by CCK-8 assay relative to control; assay type: toxicity, cell-based; settings: hepg2, 50 µM
HepG2 [11] = assay: Induction of apoptosis in human HepG2 cells at 20 uM incubated for 48 hrs by calcein-AM/PI staining based analysis; assay type: functional, cell-based
HepG2 [12] = assay: Downregulation of TTR mRNA expression in human HepG2 cells by RT-PCR analysis; assay type: functional, cell-based
Quadruplex DNA [13] = assay: Binding affinity to TTRG3 G-quadruplex (unknown origin) assessed as dissociation constant by fluorescence spectroscopy; assay type: nucleic-acid assay

| SMILES | Tm (Quadruplex DNA [1]) [°C] | ΔTm (Quadruplex DNA [2]) [°C] | Activity (Quadruplex DNA [3]) | Activity (Quadruplex DNA [4]) | Activity (Quadruplex DNA [5]) | Activity (Quadruplex DNA [6]) | Activity (Quadruplex DNA [7]) | Activity (Quadruplex DNA [8]) | Activity (Quadruplex DNA [9]) | Activity (HepG2 [10]) [%] | Activity (HepG2 [11]) | Activity (HepG2 [12]) | Kd (Quadruplex DNA [13]) [nM] |
| --- | --- | --- | --- | --- | --- | --- | --- | --- | --- | --- | --- | --- | --- |
| CN(C)c1ccc(Nc2c3ccc(NC(=O)CCN4CCCC4)cc3nc3cc(NC(=O)CCN4CCCC4)ccc23)cc1 | 54.8 | 6.9 | Active | inactive | inactive | Active | inactive | inactive | inactive | 85 | inactive | Dose-Dependent Effect | – |
| CCC1=C(C)c2cc3[nH]c(cc4nc(cc5c(CC)c(C)c(cc1n2)n5C)C(C)=C4CCC(=O)O)c(CCC(=O)O)c3C | 64 | 16.1 | Active | inactive | inactive | Active | Active | Active | Active | 85 | inactive | – | 5.3 |
| C[n+]1ccc(-c2c3nc(c(-c4cc[n+](C)cc4)c4ccc([nH]4)c(-c4cc[n+](C)cc4)c4nc(c(-c5cc[n+](C)cc5)c5ccc2[nH]5)C=C4)C=C3)cc1.Cc1ccc(S(=O)(=O)[O-])cc1.Cc1ccc(S(=O)(=O)[O-])cc1.Cc1ccc(S(=O)(=O)[O-])cc1.Cc1ccc(S(=O)(=O)[O-])cc1 | – | – | – | – | – | – | – | – | – | 85 | – | – | 148 |
| C[n+]1ccc(-c2c3nc(c(-c4cc[n+](C)cc4)c4ccc([nH]4)c(-c4cc[n+](C)cc4)c4ccc([nH]4)c(-c4cc[n+](C)cc4)c4nc2C=C4)C=C3)cc1 | 69.4 | 21.5 | Active | inactive | inactive | Active | Active | Active | inactive | – | inactive | Dose-Dependent Effect | – |
| CN1/C(=C/c2cc[n+](C)c3ccccc23)Sc2ccccc21.Cc1ccc(S(=O)(=O)[O-])cc1 | 53.3 | 5.4 | Active | inactive | inactive | Active | Active | Active | Active | 85 | inactive | – | 167 |
